Patent publication US4266048A, “Synthesis of analogs of 3'-phosphoadenosine 5'-phosphosulfate (PAPS)” (The United States of America as represented by the …, priority 1978, dated 1981)
Where a name gives a salt, the structure may show the parent alone.

Legend:
[1] = target: T1, bovine adrenal estrogen sulfotransferase (EC 2.8.2.4) (Bos taurus, UniProt P19217); assay: Relative sulfurylation rate (RSR): enzymic transfer of sulfate from analogs IV and V to estrone at saturating steroid; conditions: for RSR (in words): sulfurylation of estrone relative to IVa (RSR=1); for reduction in RSR relative to IVa: 200 μM, may be a result of inhibition by coproducts; for calculated level of coproduct produced: nucleotide at 200 μM
T1 sequence (P19217 1-295): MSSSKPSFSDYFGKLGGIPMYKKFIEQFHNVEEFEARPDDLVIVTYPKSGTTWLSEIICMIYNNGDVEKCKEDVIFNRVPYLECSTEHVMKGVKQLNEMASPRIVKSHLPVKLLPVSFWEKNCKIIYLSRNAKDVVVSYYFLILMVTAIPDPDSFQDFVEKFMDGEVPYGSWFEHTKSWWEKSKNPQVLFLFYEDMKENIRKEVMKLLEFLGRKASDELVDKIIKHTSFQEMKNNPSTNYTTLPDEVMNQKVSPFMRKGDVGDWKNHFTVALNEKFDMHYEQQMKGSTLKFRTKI

[2] = target: T1, bovine adrenal estrogen sulfotransferase (EC 2.8.2.4); design: Ki data from Horwitz et al 1977; conditions: cited from earlier work; for enzyme affinity / effect of coproduct (in words) / Ki of coproduct: estrogen sulfotransferase; for enzyme affinity / effect of coproduct (in words): discussion of Ki values; for Ki of coproduct: unit not given
[3] = target: T1, bovine adrenal estrogen sulfotransferase (EC 2.8.2.4); assay: Sulfate transfer to [6,7-3H2]estrone by Compounds IVa and Va (biological activity); type: biochemical
Experimental: The biological activity of IV (like PAPS) may be measured by sulfate transfer to [6,7-^3 H2 ]estrone as mediated by bovine adrenal estrone sulfotransferase (3'-phosphoadenylylsulfate:estrone 3-sulfotransferase, EC 2.8.2.4) and is identical with that obtained with a sample of IV prepared by an established biochemical procedure.
Biological activity of IVa and Va was determined by sulfate transfer to [6,7-^3 H2 ]estrone in the presence of bovine adrenal estrogen sulfotransferase (E.C. 2.8.2.4).
Bovine spleen phosphodiesterase II (E.C. 3.1.4.18) and ribonuclease T2 were purchased from Sigma Chemical Company. Bovine adrenal estrogen sulfotransferase (E.C. 2.8.2.4.) was isolated and purified as described by Adams et al, Biochim. Biophys. Acta, 370:160-188 (1974). [^35 S]PAPS and [6,7-^3 H2 ]-estrone were purchased from New England Nuclear Corp.
Sulfation of estrone with synthetic Compound IVa (PAPS) was determined using the procedure described in the article by Rozhin et al, ante. Sulfation by Compound Va was as follows. The ability of Compound Va to donate its sulfate to estrone was determined with [6,7-^3 H2 ]estrone (1.3·10^6 dpm/4 nmol) by modification of the above-mentioned Rozhin et al method in which Compound Va (0.11 mM) […] for Compound IVa.
After termination of the incubation, excess free [^3 H]estrone was extracted three times with 0.3 ml of ethyl ether and the aqueous sample adjusted to 0.5 ml with redistilled methanol. An aliquot (25 μl) was applied, together with 15 μg of methanolic estrone sulfate marker, to type SG chromatography media (Gelman Instrument Co., Ann Arbor, Michigan) and developed with chloroform/acetone/acetic acid (110:35:6). Estrone sulfate was visualized by spraying with methylene blue and the spot punched out with a cork borer and counted in 10 ml of Bray's dioxane scintillation solution. […] The amount of steroid sulfate ester produced was calculated utilizing the specific activity of [^3 H]estrone.

Storage stability = type: physicochemical; conditions: 50% ethanol at -20° C.
Experimental: Fractions containing Compound IVa were pooled and the buffer was removed in the usual manner. The product was redissolved in approx. 3 ml of H2 O and the solution was adjusted to pH 7 with dilute NH4 OH. Treatment of a small aliquot of the latter with an equal volume of 0.2 M HCl at 37° C. for 1.75 h gave adenosine 3',5'-diphosphate as the sole detectable product in Systems S1 and S2. Compound IVa was homogeneous in S1, S2, E1 and E2. […] Compound IVa gave yields of 68-72% based on Compound IIa.

[4] = target: T1, bovine adrenal estrogen sulfotransferase (EC 2.8.2.4); assay: Inhibition / affinity of desulfurylated nucleotides (coproducts) on estrogen sulfotransferase; type: biochemical; design: Ki data from Horwitz et al 1977; conditions: product of the reaction
Description: ^b Data taken from Tables II and III of Horwitz et al, Biochim.

SMILES: Nc1ncnc2c1ccn2[C@@H]1O[C@H](COP(=O)(O)OS(=O)(=O)O)[C@@H](O)[C@H]1OP(=O)(O)O [2'P(7-deaza-Ado)5'PS, tubercidin 2'-phosphate 5'-phosphosulfate]
- RSR (in words) [1]: relatively low

SMILES: Nc1ncnc2c1ccn2[C@@H]1O[C@H](COP(=O)(O)O)[C@@H](O)[C@H]1OP(=O)(O)O [2'P(7-deaza-Ado)5'P]
- enzyme affinity / effect of coproduct (in words) [2]: has an effect on the estrogen sulfotransferase reaction
- Ki of coproduct [2]: compares favorably with that of 3'PAdo5'P

SMILES: Nc1ncnc2c1ncn2[C@@H]1O[C@H](COP(=O)(O)O)[C@@H](O)[C@H]1OP(=O)(O)O [2'PAdo5'P, adenosine 2',5'-diphosphate]
- Ki of desulfurylated nucleotide (coproduct) ([2]; data taken from Horwitz et al, Biochim. Biophys. Acta, 480:376-381 (1977)): .infin.
- enzyme affinity / effect of coproduct (in words) [2]: weak and devoid of activity
- Ki of coproduct [2]: .infin.

SMILES: Nc1ncnc2c1ncn2[C@@H]1O[C@H](COP(=O)(O)OS(=O)(=O)O)[C@@H](O)[C@H]1OP(=O)(O)O [2'PAdo5'PS, adenosine 2'-phosphate 5'-phosphosulfate]
- activity relative to the natural isomer ([3]; Iso-PAPS, sulfate transfer to [6,7-3H2]estrone): approximately one-third
- activity relative to the natural isomer (IVa) ([3]; sulfate transfer to estrone): approximately one-third
- RSR at 200 μM (expected) ([1]; expected value at 200 μM concentration): ~0.29
- saturation concentration ([1]; stated in Table III footnote c): 100 µM

SMILES: Nc1ncnc2c1nc(Br)n2[C@@H]1O[C@H](COP(=O)(O)OS(=O)(=O)O)[C@@H](OP(=O)(O)O)[C@H]1O [3'P8-BrAdo5'PS, 8-bromoadenosine 3'-phosphate 5'-phosphosulfate]
- reduction in RSR relative to IVa [1]: 14-15%
- calculated level of coproduct produced [1]: 4 µM
- RSR (in words) [1]: compare favorably with active sulfate itself
- RSR (in words) ([1]; listed as IVb): the largest

SMILES: Nc1ncnc2c1ccn2[C@@H]1O[C@H](COP(=O)(O)O)[C@@H](OP(=O)(O)O)[C@H]1O [3'P(7-deaza-Ado)5'P, tubercidin (4-amino-7-(β-D-ribofuranosyl)-7H-pyrrolo-[2,3-d]-pyrimidine) 3',5'-diphosphate]
- enzyme affinity / effect of coproduct (in words) [2]: enhanced affinity

SMILES: Nc1ncnc2c1ccn2[C@@H]1O[C@H](COP(=O)(O)OS(=O)(=O)O)[C@@H](OP(=O)(O)O)[C@H]1O [3'P(7-deaza-Ado)5'PS, tubercidin 3'-phosphate 5'-phosphosulfate]
- reduction in RSR relative to IVa [1]: 14-15%
- calculated level of coproduct produced [1]: 4 µM
- RSR (in words) ([1]; listed as 3'PTu5'PS): compare favorably with active sulfate itself
- RSR (in words) ([1]; listed as IVe): the largest

SMILES: Nc1ncnc2c1ncn2[C@@H]1O[C@H](COP(=O)(O)OS(=O)(=O)O)[C@@H](OP(=O)(O)O)[C@H]1O [3'PAdo5'PS, adenosine 3'-phosphate 5'-phosphosulfate]
- saturation curves for IV from two sources ([3]; IV 15-100 μM, [6,7-3H2]estrone 100 μM): essentially superimposable
- activity compared with PAPS from enzymatic/biochemical procedure ([3]; sulfate transfer to [6,7-3H2]estrone, listed as IV): virtually identical
- storage stability (Storage stability): kept indefinitely

SMILES: Nc1ncnc2c([C@@H]3O[C@H](COP(=O)(O)O)[C@@H](OP(=O)(O)O)[C@H]3O)n[nH]c12 [3'PFo5'P, formycin (7-amino-3-(β-D ribofuranosyl)pyrazolo-[4,3-d]-pyrimidine) 3',5'-diphosphate]
- enzyme affinity / effect of coproduct (in words) [2]: intermediate affinity

SMILES: Nc1ncnc2c([C@@H]3O[C@H](COP(=O)(O)OS(=O)(=O)O)[C@@H](OP(=O)(O)O)[C@H]3O)n[nH]c12 [3'PFo5'PS, formycin 3'-phosphate 5'-phosphosulfate]
- RSR (in words) [1]: modest capacity to sulfurylate estrone

SMILES: O=P(O)(O)OC[C@H]1O[C@@H](n2cnc3c(O)ncnc32)[C@H](O)[C@@H]1OP(=O)(O)O [3'PIno5'P, inosine 3',5'-diphosphate]
- enzyme affinity / effect of coproduct (in words) [2]: substantial loss of enzyme affinity

SMILES: O=c1[nH]cnc2c1ncn2[C@@H]1O[C@H](COP(=O)(O)OS(=O)(=O)O)[C@@H](OP(=O)(O)O)[C@H]1O [3'PIno5'PS, inosine 3'-phosphate 5'-phosphosulfate]
- RSR (in words) [1]: low
- RSR (in words) ([1]; listed as IVd): only minimal

SMILES: O=P(O)(O)OC[C@H]1O[C@@H](n2cnc3cncnc32)[C@H](O)[C@@H]1OP(=O)(O)O [3'PPuo5'P, nebularine (9-β-D-ribofuranosylpurine) 3',5'-diphosphate]
- enzyme affinity / effect of coproduct (in words) [2]: substantial loss of enzyme affinity

SMILES: O=P(O)(O)O[C@H]1[C@@H](O)[C@H](n2cnc3cncnc32)O[C@@H]1COP(=O)(O)OS(=O)(=O)O [3'PPuo5'PS, nebularine 3'-phosphate 5'-phosphosulfate]
- RSR (in words) [1]: low
- RSR (in words) ([1]; listed as IVc): only minimal

SMILES: C[C@]12CC[C@@H]3c4ccc(OS(=O)(=O)O)cc4CC[C@H]3[C@@H]1CCC2=O [Estrone sulfate]
- effect on the estrogen sulfotransferase reaction [4]: little or no effect
